Measurements: ChEMBL document CHEMBL1128849, “Synthesis and antibacterial activity of men 10700, a new penem antibiotic” (1995)
Values after ≈ are worked out from the molar mass of the structure shown.

How the values were obtained:
[1] = test system: Aeromonas sp.; experiment: In vitro antibacterial activity against Aeromonas species.; format: functional
[2] = test system: Acinetobacter calcoaceticus subsp. anitratus; experiment: In vitro antibacterial activity against Acinetobacter anitratus; format: functional
[3] = test system: Bacteroides fragilis; experiment: In vitro antibacterial activity against Bacteroides fragilis; format: functional
[4] = test system: Moraxella catarrhalis; experiment: In vitro antibacterial activity against Branhamella catarrhalis; format: functional
[5] = test system: Clostridium perfringens; experiment: In vitro antibacterial activity against Clostridium perfringens; format: functional
[6] = test system: Citrobacter freundii; experiment: In vitro antibacterial activity against Citrobacter freundii; format: functional
[7] = test system: Enterococcus faecalis; experiment: In vitro antibacterial activity against Enterococcus faecalis; format: functional
[8] = test system: Enterococcus faecium; experiment: In vitro antibacterial activity against Enterococcus faecium; format: functional
[9] = test system: Enterococcus faecalis; experiment: In vitro antibacterial activity against Enterococcus faecalis ATCC 29212; format: functional
[10] = test system: Escherichia coli; experiment: In vitro antibacterial activity against Escherichia coli; format: functional
[11] = test system: Escherichia coli; experiment: In vitro antibacterial activity against Escherichia. coli ATCC 25922; format: functional
[12] = test system: Escherichia coli; experiment: In vitro antibacterial activity against Escherichia. coli DC2; format: functional
[13] = test system: Escherichia coli; experiment: In vitro antibacterial activity against Escherichia. coli L; format: functional
[14] = test system: Escherichia coli; experiment: In vitro antibacterial activity against Escherichia. coli SHV; format: functional
[15] = test system: Escherichia coli; experiment: In vitro antibacterial activity against Escherichia. coli TEM1; format: functional
[16] = test system: Escherichia coli; experiment: In vitro antibacterial activity against Escherichia. coli TEM2; format: functional
[17] = test system: Klebsiella aerogenes; experiment: In vitro antibacterial activity against Enterobacter aerogenes; format: functional
[18] = test system: Haemophilus influenzae; experiment: In vitro antibacterial activity against Haemophilus influenzae; format: functional
[19] = test system: Klebsiella pneumoniae; experiment: In vitro antibacterial activity against Klebsiella pneumoniae; format: functional
[20] = test system: Listeria monocytogenes; experiment: In vitro antibacterial activity against Listeria monocytogenes; format: functional
[21] = test system: Morganella morganii; experiment: In vitro antibacterial activity against Morganella morganii; format: functional
[22] = test system: Pseudomonas aeruginosa; experiment: In vitro antibacterial activity against Pseudomonas aeruginosa VR5; format: functional
[23] = test system: Proteus vulgaris; experiment: In vitro antibacterial activity against Proteus vulgaris; format: functional
[24] = test system: Providencia stuartii; experiment: In vitro antibacterial activity against Providencia stuartii; format: functional
[25] = test system: Providencia rettgeri; experiment: In vitro antibacterial activity against Providencia rettgerii; format: functional
[26] = test system: Proteus mirabilis; experiment: In vitro antibacterial activity against Proteus mirabilis; format: functional
[27] = test system: Pseudomonas aeruginosa; experiment: In vitro antibacterial activity against Pseudomonas aeruginosa; format: functional
[28] = test system: Pseudomonas aeruginosa; experiment: In vitro antibacterial activity against Pseudomonas aeruginosa ATCC 27853; format: functional
[29] = test system: Pseudomonas aeruginosa; experiment: In vitro antibacterial activity against Pseudomonas aeruginosa G242; format: functional
[30] = test system: Staphylococcus epidermidis; experiment: In vitro antibacterial activity against Staphylococcus epidermidis; format: functional
[31] = test system: Staphylococcus aureus; experiment: In vitro antibacterial activity against Staphylococcus aureus MR; format: functional
[32] = test system: Staphylococcus aureus; experiment: In vitro antibacterial activity against Staphylococcus aureus MS; format: functional
[33] = test system: Streptococcus agalactiae; experiment: In vitro antibacterial activity against Streptococcus agalactiae B; format: functional
[34] = test system: Staphylococcus aureus; experiment: In vitro antibacterial activity against Staphylococcus aureus ATCC 25923; format: functional
[35] = test system: Staphylococcus aureus; experiment: In vitro antibacterial activity against Staphylococcus aureus ATCC 29213; format: functional
[36] = test system: Staphylococcus aureus; experiment: In vitro antibacterial activity against Staphylococcus aureus MR09; format: functional
[37] = test system: Staphylococcus aureus; experiment: In vitro antibacterial activity against Staphylococcus aureus MR13; format: functional
[38] = test system: Streptococcus pneumoniae; experiment: In vitro antibacterial activity against Streptococcus pneumoniae; format: functional
[39] = test system: Yersinia sp.; experiment: In vitro antibacterial activity against Yersinia species; format: functional, yersinia spp; details: Yersinia sp. (in: enterobacteria)
[40] = test system: Stenotrophomonas maltophilia; experiment: In vitro antibacterial activity against Xanthomonas maltophilia; format: functional
[41] = test system: Streptococcus pyogenes; experiment: In vitro antibacterial activity against Streptococcus pyogenes A; format: functional

`C[C@@H](O)[C@H]1C(=O)N2C(C(=O)O)=C(CN(C)CC(N)=O)SC12` (stereo partly drawn) gave an MIC90 [1] of 1 µg/mL (≈ 3.17 µM), an MIC90 [2] of 16 µg/mL (≈ 50.7 µM) and an MIC90 [3] of 2 µg/mL (≈ 6.34 µM). For the same compound, the MIC90 [4] was 0.25 µg/mL (≈ 0.793 µM), the MIC90 [5] was 0.5 µg/mL (≈ 1.59 µM) and the MIC90 [6] was 1 µg/mL (≈ 3.17 µM). The MIC90 [7] was 8 µg/mL (≈ 25.4 µM), the MIC90 [8] was > 64 µg/mL and the MIC [9] was 4 µg/mL (≈ 12.7 µM). It also gave an MIC90 [10] of 0.25 µg/mL (≈ 0.793 µM), an MIC [11] of 0.25 µg/mL (≈ 0.793 µM) and an MIC [12] of 0.25 µg/mL (≈ 0.793 µM). For the same compound, the MIC [13] was 0.25 µg/mL (≈ 0.793 µM), the MIC [14] was 0.5 µg/mL (≈ 1.59 µM) and the MIC [15] was 0.25 µg/mL (≈ 0.793 µM). The MIC [16] was 0.5 µg/mL (≈ 1.59 µM), the MIC90 [17] was 2 µg/mL (≈ 6.34 µM) and the MIC90 [18] was 2 µg/mL (≈ 6.34 µM). It also gave an MIC90 [19] of 0.5 µg/mL (≈ 1.59 µM), an MIC90 [20] of 0.5 µg/mL (≈ 1.59 µM) and an MIC90 [21] of 2 µg/mL (≈ 6.34 µM). The MIC [22] was 0.5 µg/mL (≈ 1.59 µM), the MIC90 [23] was 2 µg/mL (≈ 6.34 µM) and the MIC90 [24] was 2 µg/mL (≈ 6.34 µM). The MIC90 [25] was 2 µg/mL (≈ 6.34 µM), the MIC90 [26] was 1 µg/mL (≈ 3.17 µM) and the MIC90 [27] was > 64 µg/mL. For the same compound, the MIC [28] was > 32 µg/mL, the MIC [29] was 4 µg/mL (≈ 12.7 µM) and the MIC90 [30] was 0.015 µg/mL (≈ 0.0476 µM). It also gave an MIC90 [31] of 4 µg/mL (≈ 12.7 µM), an MIC90 [32] of 0.0075 µg/mL (≈ 0.0238 µM) and an MIC90 [33] of 0.06 µg/mL (≈ 0.19 µM). For the same compound, the MIC [34] was < 0.03 µg/mL, the MIC [35] was 0.06 µg/mL (≈ 0.19 µM) and the MIC [36] was 1 µg/mL (≈ 3.17 µM). For the same compound, the MIC [37] was 0.06 µg/mL (≈ 0.19 µM), the MIC90 [38] was 0.06 µg/mL (≈ 0.19 µM) and the MIC90 [39] was 0.5 µg/mL (≈ 1.59 µM). For the same compound, the MIC90 [40] was > 64 µg/mL and the MIC90 [41] was 0.06 µg/mL (≈ 0.19 µM).
Work on `C[C@@H](O)[C@H]1C(=O)N2C(C(=O)O)=C(CSC(=S)N(C)CC(N)=O)SC12` (stereo partly drawn) yielded an MIC [9] of 8 µg/mL (≈ 20.4 µM), an MIC [11] of 8 µg/mL (≈ 20.4 µM) and an MIC [12] of 0.5 µg/mL (≈ 1.28 µM). The MIC [13] was 16 µg/mL (≈ 40.9 µM), the MIC [14] was 16 µg/mL (≈ 40.9 µM) and the MIC [15] was 8 µg/mL (≈ 20.4 µM). The MIC [16] was 8 µg/mL (≈ 20.4 µM), the MIC [22] was 4 µg/mL (≈ 10.2 µM) and the MIC [28] was > 32 µg/mL. It also gave an MIC [29] of 8 µg/mL (≈ 20.4 µM), an MIC [34] of 0.12 µg/mL (≈ 0.307 µM) and an MIC [35] of 0.12 µg/mL (≈ 0.307 µM). For the same compound, the MIC [36] was 2 µg/mL (≈ 5.11 µM) and the MIC [37] was 0.03 µg/mL (≈ 0.0766 µM).
In the case of `C[C@@H](O)[C@H]1C(=O)N2C(C(=O)O)=C(CN(C)CC(=O)N(C)C)SC12` (stereo partly drawn), the MIC [9] is reported as 8 µg/mL (≈ 23.3 µM), the MIC [11] is reported as 0.5 µg/mL (≈ 1.46 µM) and the MIC [12] is reported as 1 µg/mL (≈ 2.91 µM). The MIC [13] was 0.5 µg/mL (≈ 1.46 µM), the MIC [14] was 1 µg/mL (≈ 2.91 µM) and the MIC [15] was 1 µg/mL (≈ 2.91 µM). The MIC [16] was 1 µg/mL (≈ 2.91 µM), the MIC [22] was 4 µg/mL (≈ 11.6 µM) and the MIC [28] was > 32 µg/mL. For the same compound, the MIC [29] was 0.5 µg/mL (≈ 1.46 µM), the MIC [34] was 0.12 µg/mL (≈ 0.349 µM) and the MIC [35] was 0.25 µg/mL (≈ 0.728 µM). For the same compound, the MIC [36] was 4 µg/mL (≈ 11.6 µM) and the MIC [37] was 0.25 µg/mL (≈ 0.728 µM).
`CCCCOC(=O)CN(C)CC1=C(C(=O)O)N2C(=O)[C@H]([C@@H](C)O)C2S1` (stereo partly drawn) showed an MIC [9] of 8 µg/mL (≈ 21.5 µM), an MIC [11] of 32 µg/mL (≈ 85.9 µM) and an MIC [12] of 1 µg/mL (≈ 2.68 µM). For the same compound, the MIC [13] was > 32 µg/mL, the MIC [14] was > 32 µg/mL and the MIC [15] was > 32 µg/mL. The MIC [16] was > 32 µg/mL, the MIC [22] was > 32 µg/mL and the MIC [28] was > 32 µg/mL. For the same compound, the MIC [29] was > 32 µg/mL, the MIC [34] was 0.25 µg/mL (≈ 0.671 µM) and the MIC [35] was 0.5 µg/mL (≈ 1.34 µM). The MIC [36] was 16 µg/mL (≈ 43 µM) and the MIC [37] was 0.5 µg/mL (≈ 1.34 µM).
